# Assays:
# [1] = tested on: complementary RNA; test: Tm study of 10mer oligomeric compounds duplexed to RNA; assay type: binding; details: 150 mM NaCl, 10 mM phosphate, 0.1 mM EDTA, pH 7; for ΔTm/mod (° C.) vs RNA: duplex with complementary RNA, compared to unmodified 10mer A01
# Protocol: (§1) The relative ability of a chemically-modified oligomeric compound to bind to complementary nucleic acid strands, as compared to natural oligonucleotides, is measured by obtaining the melting temperature of a hybridization complex of said chemically-modified oligomeric compound with its complementary unmodified target nucleic acid. The melting temperature (Tm), a characteristic physical property of double helixes, denotes the temperature in degrees centigrade at which 50% helical versus coiled (unhybridized) forms are present. Tm (also commonly referred to as binding affinity) is measured by using the UV spectrum to determine the formation and breakdown (melting) of hybridization. Base stacking, which occurs during hybridization, is accompanied by a reduction in UV absorption (hypochromicity). Consequently a reduction in UV absorption indicates a higher Tm. Following standard automated DNA synthesis protocols oligomeric compounds were prepared comprising one or more tricyclic nucleosides for Tm studies. After cleavage from the solid support, the oligomeric compounds were purified by ion exchange HPLC and analyzed by LCMS using standard procedures. The Tm of the modified 10mer oligomeric compounds were compared to an unmodified 10mer DNA oligonucleotide when duplexed to either DNA or RNA. Tm's were determined using a Cary 100 Bio spectrophotometer with the Cary Win UV thermal program was used to measure absorbance vs. temperature. For the Tm experiments, the oligomeric compounds were prepared at a concentration of […] in a buffer of 150 mM NaCl, 10 mM phosphate, 0.1 mM EDTA at pH 7. The concentration determined at 85° C. was […] after mixing of equal volumes of selected oligomeric compound and complementary RNA or DNA. The oligomeric compounds were hybridized with a complementary RNA or DNA by heating the duplex to 90° C. for 5 minutes and then cooling to room temperature. Tm measurements were taken using a spectrophotometer while the duplex solution was heated in a cuvette at a rate of 0.5° C./min starting at 15° C. until the temperature was 85° C. Tm values were determined using Vant Hoff calculations (A260 vs temperature curve) using non self-complementary sequences where the minimum absorbance related to the duplex and the maximum absorbance related to the non-duplex single strand are manually integrated into the program.
# [2] = tested on: complementary DNA; test: Tm study of 10mer oligomeric compounds duplexed to DNA; assay type: binding; details: 150 mM NaCl, 10 mM phosphate, 0.1 mM EDTA, pH 7; for ΔTm/mod (° C.) vs DNA: duplex with complementary DNA, compared to unmodified 10mer A01
# Protocol: as §1
Substance,ΔTm/mod (° C.) vs RNA [1],ΔTm/mod (° C.) vs DNA [2],Tm duplexed with RNA [1] [°C],Tm duplexed with DNA [2] [°C]
AaAaCaTbGaTbCaAaCaGa [A14],+2.0 °C,+1.1 °C,,
"AACTfGTfCACG (AACT_{f}GT_{f}CACG; as printed in the source, key not given here) [A10, 10mer phosphodiester DNA with two tricyclic nucleosides of subscript f]",+1.3 °C,−2.0 °C,,
AACTGTbCACG [A02],+0.4 °C,−0.9 °C,,
"AACTGTdCACG (AACTGT_{d}CACG; as printed in the source, key not given here) [A03, 10mer phosphodiester DNA with one tricyclic nucleoside of subscript d, subscripts drawn in drawing 18]",+2.1 °C,+0.5 °C,,
AACTbGTbCACG [A06],+0.5 °C,−0.7 °C,,
AaAaCaTcGaTcCaAaCaGa [A15],+2.0 °C,+1.1 °C,,
"AACTdGTCACG (AACT_{d}GTCACG; as printed in the source, key not given here) [A05, 10mer phosphodiester DNA with one tricyclic nucleoside of subscript d]",+2.4 °C,+0.4 °C,,
"AaAaCaTaGaTaCaAaCaGa [A11, reference compound]",+2.1 °C,+1.3 °C,,
"AACTGTCACG (unmodified DNA) [A01, unmodified 10mer DNA oligonucleotide, phosphodiester linkages, reference compound]",0 °C,0 °C,48.3,47.9
AaAaCaTaGaTdCaAaCaGa [A12],−0.6 °C,−2.8 °C,,
AACTbGTCACG [A04],+2.4 °C,+0.1 °C,,
"AACTeGTeCACG (AACT_{e}GT_{e}CACG; as printed in the source, key not given here) [A09, 10mer phosphodiester DNA with two tricyclic nucleosides of subscript e (tc^hdT)]",−10.2 °C,−13.0 °C,,
"AACTdGTdCACG (AACT_{d}GT_{d}CACG; as printed in the source, key not given here) [A08, 10mer phosphodiester DNA with two tricyclic nucleosides of subscript d]",+1.2 °C,−0.6 °C,,
AACTcGTcCACG [A07],+1.3 °C,−1.0 °C,,
AaAaCaTdGaTdCaAaCaGa [A16],+2.3 °C,+1.1 °C,,
AaAaCaTdGaTaCaAaCaGa [A13],−2.6 °C,−3.8 °C,,
